# Results: DBAASP
# Key:
# Experiment in all cases: ≥ marks a high value that may be exact or a test limit, other limits are often not marked, values filed in µg/mL are converted to µM
# [1] = test system: Lactococcus lactis AS1.1690
# [2] = test system: Enterococcus faecium CGMCC 1.2334
# [3] = test system: Enterococcus faecalis CGMCC 1.595
# [4] = test system: Pseudomonas aeruginosa CGMCC 1.860
# [5] = test system: Staphylococcus aureus AS1.72
# Escherichia coli AS1.349 = test system: Escherichia coli AS1.349
# Bacillus cereus AS1.126 = test system: Bacillus cereus AS1.126
# [6] = test system: Listeria monocytogenes ATCC 19115
# [7] = test system: Staphylococcus aureus CMCC 26003
# [8] = test system: Bacillus subtilis DSM 347
# [9] = test system: Kocuria rhizophila DSM 348
# [10] = test system: Escherichia coli DH5alpha
# [11] = test system: Franconibacter helveticus DSM 18396
# Campylobacter jejuni = test system: Campylobacter jejuni
# [12] = test system: Salmonella typhimurium SL1344
# [13] = test system: Staphylococcus aureus Q14-0325
# [14] = test system: Pseudomonas aeruginosa ATCC 27853
# [15] = test system: Klebsiella pneumoniae ATCC 700603
# [16] = test system: Campylobacter jejuni NCTC 11351
# [17] = test system: Staphylococcus aureus ATCC 29213
# Pseudomonas aeruginosa = test system: Pseudomonas aeruginosa
# [18] = test system: Klebsiella pneumoniae Q14-0095
# [19] = test system: Acinetobacter baumannii Q12-0867
# [20] = test system: Listeria monocytogenes NCTC 11994
# [21] = test system: Pseudomonas aeruginosa PAO1
# [22] = test system: Staphylococcus aureus MRSA-15
# [23] = test system: Acinetobacter baumannii Q13-0717
# [24] = test system: Staphylococcus aureus NCTC 12493
# [25] = test system: Pseudomonas aeruginosa Q14-0208
# [26] = test system: Staphylococcus aureus Q14-0320
# Escherichia coli K-12 = test system: Escherichia coli K-12
# [27] = test system: Enterococcus faecalis JH-2-2
# [28] = test system: Klebsiella pneumoniae NCTC 13442
# [29] = test system: Staphylococcus aureus RN4220
# [30] = test system: Pseudomonas aeruginosa Q14-0890
# Escherichia coli = test system: Escherichia coli
# [31] = test system: Escherichia coli ATCC 25922
# [32] = test system: Xanthomonas axonopodis pv. glycines ISBF 327
compound,measurement,setting,value
NC(N)=NCCC[C@H](NC(=O)[C@H](Cc1cnc[nH]1)NC(=O)[C@H](Cc1c[nH]c2ccccc12)NC(=O)[C@H](Cc1ccccc1)NC(=O)[C@H](CCCN=C(N)N)NC(=O)[C@H](CCCN=C(N)N)NC(=O)[C@H](Cc1c[nH]c2ccccc12)NC(=O)[C@H](Cc1cnc[nH]1)NC(=O)[C@@H](N)CCCN=C(N)N)C(=O)O [RHWRRFWHR],MIC,[1],6.25 µM
same,MIC,[2],6.25 µM
same,MIC,[3],3.13 µM
same,MIC,[4],3.13 µM
same,MIC,[5],12.5 µM
same,MIC,Escherichia coli AS1.349,6.25 µM
same,MIC,Bacillus cereus AS1.126,6.25 µM
CC[C@H](C)[C@H](NC(=O)[C@H](CCCN=C(N)N)NC(=O)[C@H](CCCN=C(N)N)NC(=O)[C@H](CC(C)C)NC(=O)[C@@H](N)Cc1ccccc1)C(=O)N[C@@H](CCCN=C(N)N)C(=O)N[C@H](C(N)=O)C(C)C [FLRRIRV],MIC,[6],≥ 133 µM
same,MIC,[7],≥ 133 µM
CC[C@H](C)[C@H](NC(=O)CN)C(=O)NCC(=O)N[C@@H](CCCCN)C(=O)N[C@@H](Cc1ccccc1)C(=O)N[C@@H](CC(C)C)C(=O)N[C@@H](Cc1cnc[nH]1)C(=O)N[C@@H](CO)C(=O)N[C@@H](C)C(=O)N[C@@H](CCCCN)C(=O)N[C@@H](CCCCN)C(=O)N[C@@H](Cc1ccccc1)C(=O)N[C@@H](C)C(=O)N[C@@H](CCCCN)C(=O)N[C@@H](C)C(=O)N[C@@H](Cc1ccccc1)C(=O)N[C@H](C(=O)NCC(=O)N[C@@H](CCC(=O)O)C(=O)N[C@H](C(=O)N[C@@H](CCSC)C(=O)N[C@@H](CC(N)=O)C(=O)N[C@@H](CO)C(=O)O)[C@@H](C)CC)C(C)C [GIGKFLHSAKKFAKAFVGEIMNS],MIC,[8],1 µM
same,MIC,[9],8 µM
same,MIC,[10],16 µM
same,MIC,[11],4 µM
CC[C@H](C)[C@H](NC(=O)CNC(=O)[C@H](CCCN=C(N)N)NC(=O)CNC(=O)[C@H](CCCCN)NC(=O)[C@H](CC(N)=O)NC(=O)[C@H](CCCCN)NC(=O)[C@H](CC(=O)O)NC(=O)[C@H](CCCN=C(N)N)NC(=O)[C@H](CS)NC(=O)[C@H](Cc1ccc(O)cc1)NC(=O)[C@@H](NC(=O)[C@H](CCCCN)NC(=O)[C@H](CC(C)C)NC(=O)[C@H](CCCN=C(N)N)NC(=O)[C@@H](NC(=O)[C@H](Cc1ccccc1)NC(=O)[C@@H](N)CCCCN)C(C)C)[C@@H](C)CC)C(=O)N[C@@H](CO)C(=O)N[C@@H](Cc1ccccc1)C(=O)O [KFVRLKIYCRDKNKGRGISF],MIC,Campylobacter jejuni,≥ 52.7 µM
same,MIC,[12],≥ 52.7 µM
same,MIC,[13],26.3 µM
same,MIC,[14],52.7 µM
same,MIC,[15],52.7 µM
same,MIC,[16],≥ 52.7 µM
same,MIC,[17],> 52.7 µM
same,MIC,Pseudomonas aeruginosa,13.2 µM
same,MIC,[18],≥ 52.7 µM
same,MIC,[19],26.3 µM
same,MIC,[20],≥ 52.7 µM
same,MIC,[21],52.7 µM
same,MIC,[22],≥ 52.7 µM
same,MIC,[23],≥ 52.7 µM
same,MIC,[24],26.3 µM
same,MIC,[25],≥ 52.7 µM
same,MIC,[26],≥ 52.7 µM
same,MIC,Escherichia coli K-12,26.3 µM
same,MIC,[27],≥ 52.7 µM
same,MIC,[28],≥ 52.7 µM
same,MIC,[29],≥ 52.7 µM
same,MIC,[30],26.3 µM
same,MIC,Escherichia coli,52.7 µM
CC(C)C[C@H](NC(=O)[C@H](CCC(N)=O)NC(=O)[C@H](CCCN=C(N)N)NC(=O)[C@H](CC(C)C)NC(=O)[C@H](CC(C)C)NC(=O)[C@@H](NC(=O)[C@H](CC(C)C)NC(=O)[C@@H](NC(=O)[C@H](CCCN=C(N)N)NC(=O)[C@H](CCCN=C(N)N)NC(=O)[C@H](CCCCN)NC(=O)[C@H](C)NC(=O)[C@@H](N)CC(C)C)C(C)C)[C@@H](C)O)C(=O)N[C@@H](CCCN=C(N)N)C(=O)N[C@@H](CCCN=C(N)N)C(=O)N[C@H](C(=O)N[C@@H](CO)C(=O)N1CCC[C@H]1C(=O)N[C@@H](CO)C(=O)N[C@@H](CO)C(N)=O)C(C)C [LAKRRVLTLLRQLRRVSPSS],MIC,[31],14 µM
same,MIC,[32],2 µM
CC[C@H](C)[C@H](NC(=O)CN)C(=O)NCC(=O)N[C@@H](CCCCN)C(=O)N[C@@H](C)C(=O)N[C@@H](CC(C)C)C(=O)N[C@@H](Cc1cnc[nH]1)C(=O)N[C@@H](CO)C(=O)N[C@@H](C)C(=O)N[C@@H](CCCCN)C(=O)N[C@@H](CCCCN)C(=O)N[C@@H](Cc1ccccc1)C(=O)NCC(=O)N[C@@H](CCCCN)C(=O)N[C@@H](C)C(=O)N[C@@H](Cc1ccccc1)C(=O)N[C@H](C(=O)NCC(=O)N[C@@H](CCC(=O)O)C(=O)N[C@H](C(=O)N[C@@H](CCSC)C(=O)N[C@@H](CC(N)=O)C(=O)N[C@@H](CO)C(=O)O)[C@@H](C)CC)C(C)C [GIGKALHSAKKFGKAFVGEIMNS],MIC,[8],≥ 32 µM
same,MIC,[9],≥ 256 µM
same,MIC,[10],≥ 128 µM
same,MIC,[11],≥ 128 µM
